In patent publication US20260284208A1, “SYSTEM” (Oxford University Innovation Limited, priority 2023, published 2026):

Key:
[1] = target: WEIS mutant (Q147W N149E Q150I) (Homo sapiens, UniProt Q96SW2+Q9UKT9, N149E/Q147W/Q150I); experiment: GFP degradation assay (plate reader), WEIS; type: cell-based; details: background autofluorescence subtracted
Protocol: (§1) Jurkat cells were added to 96 well U-bottom assay plates (Falcon) at 1×10^5 cells per well and treated with compounds for 18 hours at 37° C. and 5% CO2. Cells were stained with 1 μg/mL DAPI (ThermoFisher) and acquired on a Cytoflex S (Beckman Coulter). Data was analysed using FlowJo 10.8.1 (BD).
(§2) The compounds were assessed in GFP degradation assays as described above. (Data shown in FIG. 19 was obtained using a plate reader leading to a degree of background autofluorescence). The data in FIG. 19 indicates the inflection point—at which range of concentrations the degradation occurs—for each compound. DC50 and selectivity values (following subtraction of background autofluorescence) were acquired. Compound C01 degrades both wild type IKZF3 and WEIS mutant (Q147W N149E Q150I).

wild type IKZF3 = wild type IKZF3 (Homo sapiens, UniProt Q96SW2+Q9UKT9); experiment: GFP degradation assay (plate reader), WT; type: cell-based; details: background autofluorescence subtracted
Protocol: as §1, §2

[2] = tested on: library of 8,380 IKZF3 degrons (ZF-eGFP/mCherry reporter) in Jurkat cells; experiment: Pooled library screen (FACS, NGS, limma voom LogFC of positive vs negative read counts); type: cell-based, human; details: WT ZF sequence
Protocol: A library of 8,380 IKZF3 degrons was cloned into pLVX-Sprout to create the eGFP/mCherry protein degradation reporter plasmid pool. A lentivirus pool was then generated using the Lenti-X lentiviral vector production method.
Jurkat cells were transduced at a multiplicity of infection of <0.3 with the lentivirus vector library in order to maximise the number of cells with a single integration. Transductions were carried out in 6 well TC-treated cell culture dishes (Falcon) with 3×10^6 cells per well. Cells were incubated for 2 days at 37° C. and 5% CO2 before the supernatant was removed and replaced with fresh media. 6 days post-transduction, mCherry+ cells were isolated via FACS using the FACS Aria Fusion (BD) in a buffer containing PBS (Gibco), 2 mM EDTA (Gibco), 25 mM HEPES (Sigma) and 1% BSA (Sigma). 8 days later, cells were treated with DMSO or a thalidomide analog for 18 hours at 37° C. and 5% CO2. mCherry+GFPlow and NOT(mCherry+GFPlow) cells were sorted by FACS using the FACS Aria Fusion (BD). DMSO treated cells were used to set the mCherry+GFPlow gate and dead cells were excluded from sorting by staining cells with 1 μg/mL DAPI (ThermoFisher). gDNA was isolated using the Maxwell RSC 48 (Promega). gDNA from cells that were unsorted and untreated were also isolated to determine the library representation on the day of compound treatment. Throughout the screen >600× coverage of the library was maintained. 3 biological replicates were carried out with a new transduction taking place each time.
A two-step PCR was used where the first PCR (PCR1) amplified the integrated degron sequence from gDNA and the second PCR (PCR2) added Illumina adaptors and barcodes to permit multiplexing. See Supp F for PCR1 and PCR2 primers. Q5 Hot Start High-Fidelity 2× Master Mix (New England Biolabs) was used for both PCRs. Sufficient gDNA was amplified in PCR1 in order to maintain >600× coverage and amplicons were purified using solid phase reversible immobilization (SPRI) beads (Beckman Coulter). Purified PCR1 products were analysed on the Tapestation 4200 (Agilent) to confirm purity prior to proceeding to PCR2. Sufficient PCR1 product was amplified in PCR2 in order to maintain >600× coverage and amplicons were run on a 2% agarose TAE gel. Target bands were excised and purified using the NucleoSpin Gel and PCR Clean-up Kit (Machery Nagel). Amplicons were analysed on the Tapestation 4200 and quantified using Qubit dsDNA HS kit (ThermoFisher). PCR products were pooled and sequenced as paired-reads on the NovaSeq (Illumina) using a SP2 200 cycles kit (Illumina).
Count distributions, percentage of read mapping, library coverage and replicate correlation per sample were assessed for QC purposes.
To carry out the library screen, we used the same plasmid construct as in our earlier flow cytometry assays, but pooling all 8,380 mutants together into one Jurkat population, ensuring a copy number of one plasmid per cell (FIG. 4B). […] These GFP-negative cells were then separated from the remaining GFP-positive population using fluorescence activated cell sorting (FACS). These two populations were then sequenced and the relative abundance of every mutant in both populations compared to provide a log FC value for each mutant sequence. This value indicated how frequently a sequence is observed in the GFP-negative population relative to the GFP-positive population, and therefore how effective a degron it is for that particular IMID compound.

wild type IKZF3, sequence (Q9UKT9 130-189): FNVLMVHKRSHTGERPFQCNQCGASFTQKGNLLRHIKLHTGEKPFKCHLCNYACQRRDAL
wild type IKZF3, sequence (Q96SW2 whole entry): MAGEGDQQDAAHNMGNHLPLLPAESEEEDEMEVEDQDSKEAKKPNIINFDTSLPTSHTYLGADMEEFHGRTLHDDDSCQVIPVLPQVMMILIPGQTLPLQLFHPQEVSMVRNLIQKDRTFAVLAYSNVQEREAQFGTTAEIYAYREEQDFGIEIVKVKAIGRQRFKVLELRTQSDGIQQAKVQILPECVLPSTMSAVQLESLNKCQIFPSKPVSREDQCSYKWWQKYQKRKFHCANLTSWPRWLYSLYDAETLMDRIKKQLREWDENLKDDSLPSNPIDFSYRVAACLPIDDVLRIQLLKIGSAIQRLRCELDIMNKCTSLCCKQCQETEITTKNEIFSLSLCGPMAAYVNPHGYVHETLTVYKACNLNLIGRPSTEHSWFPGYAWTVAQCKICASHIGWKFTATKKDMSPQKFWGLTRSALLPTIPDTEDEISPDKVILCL
WEIS mutant (Q147W N149E Q150I), sequence (Q9UKT9 130-189 Q147W/N149E/Q150I): as the sequence (Q9UKT9 130-189) above, with Q18W, N20E, Q21I counted along it
WEIS mutant (Q147W N149E Q150I), sequence (Q96SW2 whole entry): as the sequence (Q96SW2 whole entry) above

Row | SMILES | degradation of WEIS mutant [1] | degradation of wild type IKZF3 (wild type IKZF3) | position of the WT sequence in the volcano plot of the library screen [2]
1 | CN1CCN(c2ccc3c(c2)CN(C2CCC(=O)NC2=O)C3=O)CC1 (stereo not drawn) [C01] | degrades | degrades | –
2 | O=C1CCC(N2C(=O)c3ccccc3C2=O)C(=O)N1 (stereo not drawn) [thalidomide, reference compound] | – | – | close to the ‘hits’ region
